The experiment addresses hCD36ecto (CD36ecto; human CD36 ectodomain) (Homo sapiens, UniProt P16671). The experiment is described as follows: isothermal titration calorimetry. Type of experiment: binding. (In ITC the heat of successive injections is recorded.)

Our source for the Kd values is publication doi:10.1101/2021.06.06.447270v1 (biorxiv, 2021).

The Kd is the free concentration of one partner at which half of the binding sites on the other are occupied at equilibrium, for simple one-to-one binding. Higher therefore signals weaker binding.

Chain of hCD36ecto (CD36ecto; human CD36 ectodomain) (P16671 30-439 limits assumed): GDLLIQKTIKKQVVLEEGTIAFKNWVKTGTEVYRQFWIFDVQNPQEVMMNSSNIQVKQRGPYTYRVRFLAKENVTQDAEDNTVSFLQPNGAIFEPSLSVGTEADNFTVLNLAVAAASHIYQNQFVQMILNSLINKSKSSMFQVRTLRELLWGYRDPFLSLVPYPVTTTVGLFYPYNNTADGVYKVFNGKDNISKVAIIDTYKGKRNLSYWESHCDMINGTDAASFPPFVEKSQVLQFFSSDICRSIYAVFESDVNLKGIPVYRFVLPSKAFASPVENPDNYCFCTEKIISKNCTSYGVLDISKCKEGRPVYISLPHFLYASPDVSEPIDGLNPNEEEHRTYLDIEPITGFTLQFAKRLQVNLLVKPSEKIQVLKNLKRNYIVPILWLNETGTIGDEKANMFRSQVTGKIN

In turn, `C=CC1=C(C)C2=Cc3c(C=C)c(C)c4[n]3[Fe]([Cl])[n]3c(c(C)c(CCC(=O)O)c3=CC3=NC(=C4)C(C)=C3CCC(=O)O)=CC1=N2` [hemin] gave a Kd of 1260 ± 240 nM.
